From PubChem BioAssay AID651717 (Broad Institute, 2012) come the findings set out here.

The assay relates to mESC Bmi1-luciferase reporter, firefly/renilla ratio, 24 h. The assay can be described thus: Bmi1-luciferase reporter activators in mESC, dose response, esBAF inhibitor project, mouse embryonic stem cells, cherry-pick (AID 651717).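 Further: luciferase knocked into Bmi1 locus with EF-1a renilla as cell number control; rising ratio signals esBAF inhibition which derepresses Bmi1.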
As to `COc1cc2c(cc1OC)C(=Cc1ccc(N(C)C)cc1)C=C2`, the AC40 was 2.44 µM. To `Oc1cccc(Nc2nc(O)c(/C=C3\C=Nc4ccccc43)s2)c1` belongs 4.88 µM; to `Cc1cc(Cl)ccc1OCc1nnc(-c2ccccc2C)o1`, 5.44 µM; to `CC(C)Cc1ccc(-c2ccc3nccn3c2)cc1`, 1.94 µM.

Take `C=CCNc1nc(NCc2cccc(OC)c2)c2sc(-c3ccccc3)cc2n1`: the AC40 was 1.86 µM.

In the case of `COc1cccc(-c2nc(-c3ccc(NC(=O)c4cccs4)cc3)no2)c1`, the AC40 is 4.26 µM. Then `COc1ccc(/C=C2/SC(=O)N(CCNC(=O)CC(NC(C)=O)c3ccccc3)C2=O)cc1` (stereo unspecified), with 10.2 µM; and `COc1cc(C(=O)Oc2ccccc2/C=N/NC(=O)c2ccc(Cl)cc2Cl)cc(OC)c1OC`, with 1.1 µM; and `CCCC(=O)Nc1nc(-c2ccc(OC)cc2)cs1`, with 7.09 µM.

On to `COC(=O)Cc1ccc(OCc2ccc(Cl)nc2)cc1`, for which the AC40 is 6.74 µM. Then `COc1ccccc1-c1nc(SCc2ccccn2)n[nH]1`, with 8.67 µM. Then `O=C(Nc1ccccc1)c1cc(C2CCCCN2S(=O)(=O)c2cccs2)on1` (stereo unspecified), with 9.04 µM; and `CC(C)CN1C(=O)c2ccc(C(=O)Nc3nccs3)cc2C1=O`, with 1.98 µM; and `CCS(=O)(=O)n1nc(-c2ccc(Cl)cc2)nc1SC`, with 4.79 µM.

As to `N#CCc1nc(CSc2nc3ccccc3o2)cs1`, the AC40 is 12.3 µM. As for `COc1cccc(/C=C2\SC(N3CCCC(C)C3)=NC2=O)c1OC` (stereo unspecified), the AC40 is 9.58 µM. Then `Cc1c(C(=O)NCc2cccnc2)sc2nc(-c3ccccc3)cn12`, with 30.8 µM; and `C=CCn1cccc(C(=O)Nc2ccc(F)cc2)c1=O`, with 7.32 µM; and `Cc1cccc(NC(=O)Nc2cccc(F)c2)n1`, with 8.39 µM.

For `Cc1sc2nc(-c3cccnc3)nc(Cl)c2c1-c1ccccc1`, the AC40 is 19.5 µM.

With `COc1ccc(C(=O)CCc2ccccc2O)c(OC)c1`, the AC40 was 3.58 µM. Consider `COc1ccc(NC(=O)c2cc3sccc3n2Cc2ccc(F)cc2)cc1OC`, for which the AC40 was 13.8 µM. Then `Cc1ccc(NC(=O)C2CCCN(c3ncccn3)C2)cc1F` (stereo unspecified), with 1.16 µM; and `CC1CCN(c2oc(-c3cccc4ccccc34)nc2C#N)CC1`, with 2.52 µM. For the molecule `COc1ccc2cc(C(=O)N(C)CC(=O)Nc3ccccc3Br)ccc2c1`, the AC40 was 5.86 µM.

For the molecule `Cc1ccc(CNc2cccnc2)cc1`, the AC40 is 25.7 µM. Regarding `O=C(c1ccccc1)c1ccc2ccccc2c1`, the AC40 is 3.04 µM. To `COc1ccc2c(=O)c(-c3ccc(OC)c(OC)c3)coc2c1` belongs 2.69 µM. As to `O=C(CCN1C(=O)/C(=C/C=C/c2ccccc2)SC1=S)Nc1cccnc1`, the AC40 is 2.35 µM.

As to `CN(C)c1ccc(CN(C(=O)c2cc3ccccc3oc2=O)C2CCS(=O)(=O)C2)cc1` (stereo unspecified), the AC40 was 3.62 µM. On to `Cc1ccc(NC(=O)O/N=C/c2ccc(F)cc2)cc1`, for which the AC40 was 8.83 µM.

With `CC(=O)c1ccc(OCc2cc(C(=O)N(C)Cc3cc(C)no3)no2)cc1`, the AC40 was 7.14 µM.

As for `CCC(=O)c1ccc(N2CCCC2)c(F)c1`, the AC40 is 6.47 µM. To `O=P(O)(O)c1ccccc1OCCOCCOCCOCCOc1ccccc1P(=O)(O)O` belongs 8.04 µM; to `O=C(Nc1ccc(Cl)c(Cl)c1)Nc1ccccc1O`, 1.14 µM.

As to `COc1ccc2oc3cc(Cl)ccc3c(=O)c2c1`, the AC40 is 2.85 µM.

In the case of `CC(=O)Nc1ccc(CNc2nc3cc(-c4ccsc4)sc3c(=O)n2C)cc1`, the AC40 is 6.16 µM. Then `COc1ccc([C@@H](C)NC(=O)c2ccc3oc(C(C)C)nc3c2)cc1`, with 9.81 µM; and `COc1ccc2[nH]c(=O)c(-c3nnn(-c4ccccc4)n3)cc2c1`, with 11.6 µM; and `CC1CCCC(C)N1C(=O)c1cc(-c2ccc(Cl)c(Cl)c2)on1` (stereo unspecified), with 6.88 µM. As for `CN(C)c1ccc(CNc2nc3cc(-c4ccc(F)cc4)sc3c(=O)n2C)cc1`, the AC40 was 2.12 µM.

As to `Cc1csc(NC(=O)Cc2c(F)cccc2Cl)n1`, the AC40 was 8.57 µM. On to `Nc1cc2c3ccccc3ccc2c2ccccc12`, for which the AC40 is 2.47 µM. To `CO[C@H]1CN(C)C(=O)c2cc(NC(=O)NC(C)C)ccc2OC[C@@H](C)N(Cc2ccc(-c3ccccn3)cc2)C[C@@H]1C` belongs 22.6 µM; to `CCN(C(=O)c1cccs1)c1nnc(-c2ccncc2)s1`, 1.05 µM. To `CC(C)c1ccc(-c2nn(-c3ccccc3)cc2C2C(C#N)=C(N)OC3=C2C(=O)CC(C)(C)C3)cc1` (stereo unspecified) belongs 29.1 µM. To `CCN(C(=O)CN1C(=O)S/C(=C\C=C\c2ccccc2)C1=O)C1CCS(=O)(=O)C1` (stereo unspecified) belongs 3.85 µM; to `CN(C)S(=O)(=O)c1ccc2c(c1)/C(=C/c1cc3c([nH]1)CCCC3)C(=O)N2`, 3.25 µM; to `C/C(CC(=O)Nc1ccc(OCc2ccccc2)cc1)=N\NC(=O)C(=O)Nc1ccc(C)c(Cl)c1`, 1.03 µM.

On to `CCCCc1nc2cc(C(=O)N3CCN(c4nc(C)cnc4C)CC3)ccc2o1`, for which the AC40 was 2.43 µM. On to `Clc1cccc(Cl)c1Cn1nnc(-c2cccs2)n1`, for which the AC40 is 3.31 µM. Take `Clc1ccc(-n2nnc(-c3ncc[nH]3)n2)cc1Cl`: the AC40 is 11.6 µM.

For `COc1ccc(NC(=O)c2cc(C3CC3)on2)c(OC)c1`, the AC40 is 11.8 µM.

Regarding `CC1CCc2sc(C(=O)NC3CCCCC3)cc2C1` (stereo unspecified), the AC40 is 1.08 µM. Then `Oc1cccc(C=NNc2ccccn2)c1`, with 5.37 µM.

Take `Nc1ccccc1/C=C/c1ccccc1N`: the AC40 was 2.4 µM. Then `Cc1cccc(NC(=O)c2cc(-c3cc(Cl)ccc3O)n[nH]2)c1`, with 2.08 µM.

As for `COc1ccc(C(=O)Nc2ccc(Cl)cn2)cc1Cl`, the AC40 was 2.38 µM. To `COc1ccccc1-c1cnc(C(O)c2ccc(C)cc2)[nH]1` (stereo unspecified) belongs 10.2 µM; to `CC1(C)CNC(=O)c2sc(NC(=O)c3ccccc3)nc2C1`, 4.76 µM. Turning to `O=C(Cn1c(/C=C/c2ccccc2)nc2ccccc21)Nc1ccc(F)cc1`, the AC40 is 2.78 µM. To `CCCCCCCNC(=O)C1(CC2CC(c3ccccc3)=NO2)CCN(C(=O)OC(C)(C)C)CC1` (stereo unspecified) belongs 15.4 µM; to `CCOC(=O)C1=C(CSc2nc(-c3ccccc3)ccc2C#N)OC(N)=C(C#N)C1c1ccc(OC)cc1` (stereo unspecified), 6.12 µM. Then `Cc1ccc(SCCN2CCC(C)CCC2=O)cc1` (stereo unspecified), with 2.74 µM. To `CCn1c(SCc2ccccc2Cl)nc2ccccc21` belongs 5.49 µM; to `Cc1ccccc1C(=O)c1cccn1CC(=O)NCc1cccc(Cl)c1`, 13.6 µM; to `Oc1ccc(Cl)cc1C=NN1CCCCCC1`, 1.37 µM. Turning to `Fc1cc(Cl)cc2ccc(-c3ccccc3)nc12`, the AC40 was 1.45 µM. To `CCn1c(COc2ccc(OC)cc2)nc2ccccc21` belongs 2.81 µM; to `CC(C)(C)C(=O)N1CCN(c2nc3ccccc3s2)CC1`, 0.702 µM; to `ON=C(CCc1ccccc1)c1ccccc1`, 0.977 µM.

On to `O=C(Nc1ccc2c(c1)C(=O)c1ccccc1-2)c1ccccc1`, for which the AC40 is 1.08 µM. To `CC1CCCN(C(=O)CNC(=O)c2sc3ccccc3c2Cl)C1` (stereo unspecified) belongs 3.96 µM; to `Cc1cccc(Oc2coc3cc(O)ccc3c2=O)c1`, 15.7 µM. To `c1ccc(-c2nc3c(ccc4ccccc43)[nH]2)nc1` belongs 0.96 µM; to `CCCc1nc2c3ccccc3ccn2c1Cc1ccc(C)cc1`, 0.443 µM.
